Results reported in the NIST ThermoML archive (doi:10.1021/je049908l).
Numbers after ± are expanded uncertainties.

How the values were obtained:
[1] = Crystal; DTA
[2] = Molar enthalpy of transition or fusion; conditions: Crystal; DSC

SMILES: NC(C(=O)O)c1ccc(O)cc1.O=S(=O)(O)O (racemic) [DL-p-hydroxyphenylglycine sulfate]
- Normal melting temperature [1]: 71.80 ± 2.1 °C
- Molar enthalpy of transition or fusion [2]: 10.7 ± 0.693 kcal/mol
